Assay results from ChEMBL document CHEMBL2424637, “Nucleophilic substitution reactions of 1,4-naphthoquinone and biologic properties of novel S-, S,S-, N-, and N,S-substituted 1,4-naphthoquinone derivatives” (2013).
Converted amounts (≈) assume the structure as drawn. The source made the active and inactive calls. The calls are words filed in the database; no cut-off is given here.

Key:
Format in all cases: functional
Yamadazyma tenuis [1] = test: Antifungal activity against Candida tenuis VKM Y-70 at 0.1% after 48 to 72 hrs by agar disk diffusion technique
Staphylococcus aureus [2] = test: Antibacterial activity against Staphylococcus aureus 209-P at 0.5% after 24 hrs by agar disk diffusion technique
Mycobacterium [3] = test: Antibacterial activity against Mycobacterium luteum B-917 at 0.1% after 24 hrs by agar disk diffusion technique
Escherichia coli [4] = test: Antibacterial activity against Escherichia coli B-906 at 0.1% after 24 hrs by agar disk diffusion technique
Mycobacterium [5] = test: Antibacterial activity against Mycobacterium luteum B-917 after 24 to 72 hrs by serial dilution technique
Escherichia coli [6] = test: Antibacterial activity against Escherichia coli B-906 at 0.5% after 24 hrs by agar disk diffusion technique
Staphylococcus aureus [7] = test: Antibacterial activity against Staphylococcus aureus 209-P at 0.1% after 24 hrs by agar disk diffusion technique
Aspergillus niger [8] = test: Antifungal activity against Aspergillus niger F-1119 at 0.1% after 48 to 72 hrs by agar disk diffusion technique
Staphylococcus aureus [9] = test: Antibacterial activity against Staphylococcus aureus 209-P after 24 to 72 hrs by serial dilution technique
Escherichia coli [10] = test: Antibacterial activity against Escherichia coli B-906 after 24 to 72 hrs by serial dilution technique
Aspergillus niger [11] = test: Antifungal activity against Aspergillus niger F-1119 at 0.5% after 48 to 72 hrs by agar disk diffusion technique
Mycobacterium [12] = test: Antibacterial activity against Mycobacterium luteum B-917 at 0.5% after 24 hrs by agar disk diffusion technique
Yamadazyma tenuis [13] = test: Antifungal activity against Candida tenuis VKM Y-70 at 0.5% after 48 to 72 hrs by agar disk diffusion technique
Aspergillus niger [14] = test: Antifungal activity against Aspergillus niger F-1119 after 24 to 72 hrs by serial dilution technique
Yamadazyma tenuis [15] = test: Antifungal activity against Candida tenuis VKM Y-70 after 24 to 72 hrs by serial dilution technique

| Compound | inhibition zone (IZ) (Yamadazyma tenuis [1]) [mm] | diameter of the inhibition zone (DIZ) (Staphylococcus aureus [2]) [mm] | diameter of the inhibition zone (DIZ) (Mycobacterium [3]) [mm] | diameter of the inhibition zone (DIZ) (Escherichia coli [4]) [mm] | MIC (Mycobacterium [5]) | diameter of the inhibition zone (DIZ) (Escherichia coli [6]) [mm] | diameter of the inhibition zone (DIZ) (Staphylococcus aureus [7]) [mm] | diameter of the inhibition zone (DIZ) (Aspergillus niger [8]) [mm] | MIC (Staphylococcus aureus [9]) | MIC (Escherichia coli [10]) | diameter of the inhibition zone (DIZ) (Aspergillus niger [11]) [mm] | diameter of the inhibition zone (DIZ) (Yamadazyma tenuis [1]) [mm] | diameter of the inhibition zone (DIZ) (Mycobacterium [12]) [mm] | diameter of the inhibition zone (DIZ) (Yamadazyma tenuis [13]) [mm] | MIC (Aspergillus niger [14]) | MIC (Yamadazyma tenuis [15]) |
| --- | --- | --- | --- | --- | --- | --- | --- | --- | --- | --- | --- | --- | --- | --- | --- | --- |
| NYSTATIN | 19 |  |  |  |  |  |  |  |  |  |  |  |  |  |  |  |
| COC(=O)CCSC1=C(Sc2c(Cl)c(Cl)c(Cl)c(Cl)c2Cl)C(=O)c2ccccc2C1=O |  | 0 | 6 | 0 | 15.6 µg/mL (≈ 28 µM) | 0 | 0 | 0 | 250 µg/mL (≈ 449 µM) | inactive | 0 | 0 | 10.7 | 0 | inactive | 62.5 µg/mL (≈ 112 µM) |
| COc1ccc(CSC2=C(SCc3ccc(OC)cc3)C(=O)c3ccccc3C2=O)cc1 |  | 0 | 0 | 0 | inactive | 0 | 0 | 0 | inactive | inactive | 7.4 | 7.4 | 7 | 11.7 | 250 µg/mL (≈ 540 µM) | 62.5 µg/mL (≈ 135 µM) |
| O=C1C(Sc2cc(Cl)ccc2Cl)=C(Sc2cc(Cl)ccc2Cl)C(=O)c2ccccc21 |  | 0 | 0 | 0 | inactive | 0 | 0 | 0 | inactive | inactive | 0 | 0 | 0 | 7 | inactive | 500 µg/mL (≈ 976 µM) |
| O=C1C(Cl)=C(N2CCN(CCO)CC2)C(=O)c2ccccc21 |  | 20.7 | 16 | 6 | 31.2 µg/mL (≈ 97.3 µM) | 8 | 11.4 | 0 | 62.5 µg/mL (≈ 195 µM) | 500 µg/mL (≈ 1560 µM) | 0 | 0 | 28.7 | 0 | 125 µg/mL (≈ 390 µM) | 125 µg/mL (≈ 390 µM) |
| CCCCOC(=O)CCSC1=C(Sc2c(Cl)c(Cl)c(Cl)c(Cl)c2Cl)C(=O)c2ccccc2C1=O |  | 0 | 0 | 0 | 125 µg/mL (≈ 209 µM) | 0 | 0 | 0 | inactive | inactive | 6 | 0 | 0 | 0 | inactive | inactive |
| CCCCOC(=O)CCSC1=C(N2CCC3(CC2)OCCO3)C(=O)c2ccccc2C1=O |  | 0 | 0 | 0 | 125 µg/mL (≈ 272 µM) | 0 | 0 | 7 | inactive | inactive | 9 | 0 | 0 | 0 | 62.5 µg/mL (≈ 136 µM) | inactive |
| O=C1C(Sc2c(Cl)c(Cl)c(Cl)c(Cl)c2Cl)=C(N2CCSCC2)C(=O)c2ccccc21 |  | 0 | 0 | 0 | inactive | 0 | 0 | 0 | inactive | inactive | 0 | 0 | 0 | 0 | inactive | 125 µg/mL (≈ 232 µM) |
